Read-outs that look alike come from different tables or passages of the source.
What was measured:
[1] = biological target: T1, rat brain N-type calcium channel subunits (α1B+α2δ+β1b cDNA subunits) (Rattus norvegicus, UniProt Q02294); experiment: N-type calcium channel block, whole cell patch clamp in transfected HEK 293 cells; format: cell-based; settings: holding potential −80 mV to +10 mV
T1 construct: expressed in transfected cells; host or cells: HEK 293
Procedure: N-type calcium channel blocking activity was assayed in human embryonic kidney cells, HEK 293, stably transfected with the rat brain N-type calcium channel subunits (α1B+α2δ+β1b cDNA subunits). Alternatively, N-type calcium channels (α1B+α2δ+β1b cDNA subunits), L-type channels (α1C+δ+β1b cDNA subunits) and P/Q-type channels (α1A+α2δ+β1b cDNA subunits) were transiently expressed in HEK 293 cells. Briefly, cells were cultured in Dulbecco's modified eagle medium (DMEM) supplemented with 10% fetal bovine serum, 200 U/ml penicillin and 0.2 mg/ml streptomycin at 37° C. with 5% CO2. At 85% confluency cells were split with 0.25% trypsin/l mM EDTA and plated at 10% confluency on glass coverslips. At 12 hours the medium was replaced and the cells transiently transfected using a standard calcium phosphate protocol and the appropriate calcium channel cDNA's. Fresh DMEM was supplied and the cells transferred to 28° C./5% CO2. Cells were incubated for 1 to 2 days before cell recording.
Whole cell patch clamp experiments were performed using an Axopatch 200B amplifier (Axon Instruments, Burlingame, Calif.) linked to a personal computer equipped with PCLAMP software. The external and internal recording solutions contained, respectively, 5 mM BaCl2, 10 mM MgCl2, 10 mM HEPES, 40 mM TEACl, 10 mM glucose, 87.5 mM CsCl (pH 7.2) and 108 mM CsMS, 4 mM MgCl2, 9 mM EGTA, 9 mM HEPES (pH 7.2). Currents were typically elicited from a holding potential of −80 mV to +10 mV using Clampex software (Axon Instruments). Typically, currents were first elicited with low frequency stimulation (0.067 Hz) and allowed to stabilize prior to application of the compounds. The compounds were then applied during the low frequency pulse trains for two to three minutes to assess tonic block, and subsequently the pulse frequency was increased to 0.2 Hz to assess frequency dependent block. Data were analyzed using Clampfit (Axon Instruments) and SigmaPlot 4.0 (Jandel Scientific). […]

[2] = system: spinal nerve ligation (SNL) injury; experiment: Spinal nerve ligation (SNL) model of neuropathic pain, thermal hyperalgesia; format: in vivo; settings: rat SNL, 30 mg/kg orally in propylene glycol
From the text: Spinal nerve ligation (SNL) injury was induced using the procedure of Kim and Chung, (Kim and Chung 1992) in male Sprague-Dawley rats (Harlan; Indianapolis, Ind.) weighing 200 to 300 grams. Anesthesia was induced with 2% halothane in O2 at 2 L/min and maintained with 0.5% halothane in O2. After surgical preparation of the rats and exposure of the dorsal vertebral column from L4 to S2, the L5 and L6 spinal nerves were tightly ligated distal to the dorsal root ganglion using 4-0 silk suture. The incision was closed, and the animals were allowed to recover for 5 days. […] Sham control rats underwent the same operation and handling as the experimental animals, but without SNL.
The method of Hargreaves and colleagues (Hargreaves, et al., 1988) was employed to access paw-withdrawal latency to a thermal nociceptive stimulus. Rats were allowed to acclimate within a plexiglas enclosure on a clear glass plate maintained at 30° C. A radiant heat source (i.e., high intensity projector lamp) was activated with a timer and focused onto the plantar surface of the affected paw of nerve-injured or carrageenan-injected rats. Paw-withdrawal latency was determined by a photocell that halted both lamp and timer when the paw was withdrawn. The latency to withdrawal of the paw from the radiant heat source was determined prior to carrageenan or […], 3 hours after carrageenan or 7 days after L5/L6 SNL but before drug and after drug ministration. A maximal cut-off of 40 seconds was Employed to prevent tissue damage. Paw withdrawal latencies were thus determined to the Nearest 0.1 second. Reversal of thermal hyperalgesia was indicated by a return of the paw Withdrawal latencies to the pre-treatment baseline latencies (i.e., 21 seconds). Anti nociception Was indicated by a significant (p <0.05) increase in paw withdrawal latency above this baseline. Data were converted to % anti hyperalgesia by the formula: (100qx (test latency−baseline latency)/(cut-off−baseline latency) where cut-off was 21 seconds for determining anti hyperalgesia.
Compound 7 was administered orally in propylene glycol solution at a dose of 30 mg/kg. The percent activity was calculated for thermal hyperalgesia.

[3] = biological target: T2, human α1G T-type channels (Homo sapiens, UniProt O43497); experiment: T-type calcium channel block, patch clamp in HEK cell lines; format: cell-based
T2 construct: expressed in transfected cells
T2 sequence (O43497 whole entry): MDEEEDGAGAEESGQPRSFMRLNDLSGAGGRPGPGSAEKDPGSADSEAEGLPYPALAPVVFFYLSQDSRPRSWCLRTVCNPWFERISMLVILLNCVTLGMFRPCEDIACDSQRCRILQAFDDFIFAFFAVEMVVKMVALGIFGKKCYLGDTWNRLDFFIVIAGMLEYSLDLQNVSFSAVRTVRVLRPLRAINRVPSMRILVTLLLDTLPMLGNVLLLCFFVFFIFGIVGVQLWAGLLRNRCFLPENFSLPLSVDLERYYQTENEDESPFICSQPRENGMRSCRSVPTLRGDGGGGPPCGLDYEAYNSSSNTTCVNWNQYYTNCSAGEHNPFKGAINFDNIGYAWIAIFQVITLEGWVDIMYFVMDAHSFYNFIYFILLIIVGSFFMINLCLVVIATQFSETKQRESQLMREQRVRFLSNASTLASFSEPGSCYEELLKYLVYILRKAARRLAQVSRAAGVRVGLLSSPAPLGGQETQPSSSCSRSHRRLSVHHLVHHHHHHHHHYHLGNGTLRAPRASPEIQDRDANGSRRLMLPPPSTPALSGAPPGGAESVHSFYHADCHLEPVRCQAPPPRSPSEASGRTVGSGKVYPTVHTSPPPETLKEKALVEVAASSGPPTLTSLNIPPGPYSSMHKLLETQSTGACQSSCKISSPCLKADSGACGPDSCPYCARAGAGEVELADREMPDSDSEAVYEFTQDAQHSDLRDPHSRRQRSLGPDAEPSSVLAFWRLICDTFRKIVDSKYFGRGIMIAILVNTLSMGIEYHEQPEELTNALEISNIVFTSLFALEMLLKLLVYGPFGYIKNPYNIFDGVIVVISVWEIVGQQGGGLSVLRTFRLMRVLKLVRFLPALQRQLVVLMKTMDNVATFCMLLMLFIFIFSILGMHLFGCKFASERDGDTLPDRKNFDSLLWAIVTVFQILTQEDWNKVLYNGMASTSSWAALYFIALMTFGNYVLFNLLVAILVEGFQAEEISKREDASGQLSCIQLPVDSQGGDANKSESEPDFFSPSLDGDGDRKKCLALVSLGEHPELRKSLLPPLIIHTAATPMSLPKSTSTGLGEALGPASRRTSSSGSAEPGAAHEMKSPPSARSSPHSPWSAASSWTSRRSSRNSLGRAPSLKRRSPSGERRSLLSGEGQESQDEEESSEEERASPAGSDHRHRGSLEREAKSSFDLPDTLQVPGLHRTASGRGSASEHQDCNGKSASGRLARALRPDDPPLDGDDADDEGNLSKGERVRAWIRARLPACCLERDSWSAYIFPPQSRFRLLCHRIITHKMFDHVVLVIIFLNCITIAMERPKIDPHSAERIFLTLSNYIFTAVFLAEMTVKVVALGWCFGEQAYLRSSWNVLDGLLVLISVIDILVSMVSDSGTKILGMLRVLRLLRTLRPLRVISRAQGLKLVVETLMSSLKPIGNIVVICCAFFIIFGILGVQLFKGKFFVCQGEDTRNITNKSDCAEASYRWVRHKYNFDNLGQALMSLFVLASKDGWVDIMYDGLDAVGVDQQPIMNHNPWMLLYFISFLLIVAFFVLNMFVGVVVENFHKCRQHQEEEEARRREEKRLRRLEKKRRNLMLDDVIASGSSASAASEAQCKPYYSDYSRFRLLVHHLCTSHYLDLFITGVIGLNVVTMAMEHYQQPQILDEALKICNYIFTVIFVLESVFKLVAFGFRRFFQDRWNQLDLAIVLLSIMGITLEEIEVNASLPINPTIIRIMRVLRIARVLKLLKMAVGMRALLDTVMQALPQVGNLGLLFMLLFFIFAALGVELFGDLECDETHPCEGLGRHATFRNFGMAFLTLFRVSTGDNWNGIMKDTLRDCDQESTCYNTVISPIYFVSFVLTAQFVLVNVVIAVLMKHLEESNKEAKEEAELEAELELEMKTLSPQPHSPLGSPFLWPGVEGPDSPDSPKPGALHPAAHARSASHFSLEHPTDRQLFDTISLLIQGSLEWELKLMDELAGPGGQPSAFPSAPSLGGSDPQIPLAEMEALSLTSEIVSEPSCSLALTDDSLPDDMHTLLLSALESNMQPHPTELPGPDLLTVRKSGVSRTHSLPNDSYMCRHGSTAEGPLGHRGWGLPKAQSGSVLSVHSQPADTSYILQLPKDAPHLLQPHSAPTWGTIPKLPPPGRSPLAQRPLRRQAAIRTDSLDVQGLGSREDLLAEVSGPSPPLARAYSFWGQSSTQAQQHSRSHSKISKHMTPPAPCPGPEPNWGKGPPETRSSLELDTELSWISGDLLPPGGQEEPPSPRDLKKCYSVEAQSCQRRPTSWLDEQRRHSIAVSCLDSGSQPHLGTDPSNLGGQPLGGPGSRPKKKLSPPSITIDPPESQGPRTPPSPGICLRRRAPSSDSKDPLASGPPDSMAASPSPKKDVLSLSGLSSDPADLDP
Procedure: Standard patch-clamp techniques were employed to identify blockers of T-type currents. Briefly, previously described HEK cell lines stably expressing human α1G T-type channels were used for all the recordings (passage #: 4-20, 37° C., 5% CO2). To obtain T-type currents, plastic dishes containing semi-confluent cells were positioned on the stage of a ZEISS AXIOVERT S100 microscope after replacing the culture medium with external solution (see below). Whole-cell patches were obtained using pipettes (borosilicate glass with filament, O.D.: 1.5 mm, I.D.: 0.86 mm, 10 cm length), fabricated on a SUTTER P-97 puller with resistance values of ˜5 MΩ (see below for internal solution).
In the non-inactivating protocol, the holding potential is set at −110 mV and with a pre-pulse at −100 mV for 1 second prior to the test pulse at 40 mV for 50 ms. […]
Test compounds were dissolved in external solution, 0.1-0.01% DMSO. After ˜10 min rest, they were applied by gravity close to the cell using a WPI microfil tubing. The “non-inactivated” pre-pulse was used to examine the resting block of a compound. The “inactivated” protocol was employed to study voltage-dependent block. However, the initial data shown below were mainly obtained using the non-inactivated protocol only. IC50 values are shown for various compounds of the invention in Table 4.

rat formalin model = experiment: Formalin-induced pain model; format: in vivo; settings: 30 mg/kg IP, 10 minutes prior to formalin, saline control=100%
Procedure: The effects of intrathecally delivered compounds of the invention on the rat formalin model were measured. The compounds were reconstituted to stock solutions of approximately 10 mg/ml in propylene glycol. Eight Holtzman male rats of 275-375 g size were randomly selected per test article.
The following study groups were used, with test article, vehicle control (propylene glycol) and saline delivered intraperitoneally (IP):
Prior to initiation of drug delivery baseline behavioral and testing data were taken.
On the morning of testing, a small metal band (0.5 g) was loosely placed around the right hind paw. The rat was placed in a cylindrical Plexiglas chamber for adaptation a minimum of 30 minutes. Test Article or Vehicle Control Article was administered 10 minutes prior to formalin injection (50 μl of 5% formalin) into the dorsal surface of the right hindpaw of the rat. The animal was then placed into the chamber of the automated formalin apparatus where movement of the formalin injected paw was monitored and the number of paw flinches tallied by minute over the next 60 minutes (Malmberg, A. B., et al., Anesthesiology (1993) 79:270-281).
Results are presented as Maximum Possible Effect±SEM, where saline control=100%.

[4] = system: T-type over L-type channels; settings: cited from earlier work

SMILES	IC50 ([1]; low frequency stimulation 0.067 Hz (tonic block), read-out: IC50 @ 0.067 Hz)	IC50 ([1]; pulse frequency 0.2 Hz (frequency dependent block), read-out: IC50 @ 0.2 Hz)	Thermal Hyperalgesia (% Activity) ([2]; 30 min)	Thermal Hyperalgesia (% Activity) ([2]; 60 min)	Thermal Hyperalgesia (% Activity) ([2]; 90 min)	Thermal Hyperalgesia (% Activity) ([2]; 120 min)	IC50 ([3]; −80 mV (inactivation protocol, voltage-dependent block), read-out: IC50 - 80 mV)	IC50 ([3]; −100 mV pre-pulse (non-inactivating protocol, resting block), read-out: IC50 - 100 mV)	Maximum Possible Effect±SEM, Phase II Total (rat formalin model)	Maximum Possible Effect±SEM, Phase IIB (rat formalin model)	selective for T-type over L-type channels [4]
O=C(CN(c1ccccc1)c1ccccc1)N1CCN(C(c2ccccc2)c2cccc(Cl)c2Cl)CC1 (centres unmarked) [Compound 7, 1-{4-[(2,3-Dichloro-phenyl)-phenyl-methyl]-piperazin-1-yl}-2-diphenylamino-ethanone]	0.18 µM	0.14 µM	38.45 ± 18.52%	78.54 ± 10.74%	40.21 ± 17.08%	20.98 ± 10.36%	1 µM	1 µM	63 ± 10%	64 ± 11%	
COCC(=O)O[C@]1(CCN(C)CCCc2nc3ccccc3[nH]2)CCc2cc(F)ccc2[C@@H]1C(C)C [Mibefradil]											10-30 fold
